In the supplement of paper PMC10307832:

Assays:
Assay in all cases: relative viability (nuclei count vs DMSO), 5 days (fraction); higher = more cells survive
[1] = compound: O=C(CCCCCCC(=O)Nc1ccccc1)NO [Vorinostat] + Cc1nc(Nc2ncc(C(=O)Nc3c(C)cccc3Cl)s2)cc(N2CCN(CCO)CC2)n1 [Dasatinib] (partner 0.075 µM)
Outline: (§1)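 The day after seeding in 1536-well plates, lung cancer cell lines were treated by pin tool with a single drug, or with a fixed anchor-drug dose together with five library-drug doses (not always all listed) in √10 steps. After 5 days, a combined fix-and-stain solution (final 0.05% Triton X-100, 1% formaldehyde, 1 ug/ml Hoechst) was added. Nuclei counted on 4× images gave relative viability as treated counts over vehicle counts, reported as the median of duplicate plates.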

[2] = compound: O=C(CCCCCCC(=O)Nc1ccccc1)NO [Vorinostat] + Nc1ncn([C@H]2C[C@H](O)[C@@H](CO)O2)c(=O)n1 [Decitabine] (partner 2 µM)
Outline: as §1

[3] = compound: O=C(CCCCCCC(=O)Nc1ccccc1)NO [Vorinostat] + CC(=O)c1c(C)c2cnc(Nc3ccc(N4CCNCC4)cn3)nc2n(C2CCCC2)c1=O [Palbociclib] (partner 0.5 µM)
Outline: as §1

[4] = compound: O=C(CCCCCCC(=O)Nc1ccccc1)NO [Vorinostat] + Cc1cc(Nc2cc(N3CCN(C)CC3)nc(Sc3ccc(NC(=O)C4CC4)cc3)n2)n[nH]1 [Tozasertib] (partner 0.1 µM)
Outline: as §1

[5] = compound: O=C(CCCCCCC(=O)Nc1ccccc1)NO [Vorinostat] + C[C@]1(O)C[C@@H](c2nc(-c3ccc4ccc(-c5ccccc5)nc4c3)c3c(N)nccn32)C1 [Linsitinib] (partner 1 µM)
Outline: as §1

Cell Line EMC-BAC-2 has a relative viability ([1]; first compound 0.253 µM) of 0.311, a relative viability ([1]; first compound 0.8 µM) of 0.204 and a relative viability ([1]; first compound 2.53 µM) of 0.169. The relative viability ([1]; first compound 8 µM) was 0.108, the relative viability ([2]; first compound 0.253 µM) was 0.958 and the relative viability ([2]; first compound 0.8 µM) was 0.716. For the same cell line, the relative viability ([2]; first compound 2.53 µM) was 0.373, the relative viability ([2]; first compound 8 µM) was 0.168 and the relative viability ([3]; first compound 0.253 µM) was 0.49. For the same cell line, the relative viability ([3]; first compound 0.8 µM) was 0.425, the relative viability ([3]; first compound 2.53 µM) was 0.254 and the relative viability ([3]; first compound 8 µM) was 0.203. The relative viability ([4]; first compound 0.253 µM) was 0.199, the relative viability ([4]; first compound 0.8 µM) was 0.202 and the relative viability ([4]; first compound 2.53 µM) was 0.149. For the same cell line, the relative viability ([4]; first compound 8 µM) was 0.144, the relative viability ([5]; first compound 0.253 µM) was 0.977 and the relative viability ([5]; first compound 0.8 µM) was 0.866. For the same cell line, the relative viability ([5]; first compound 2.53 µM) was 0.47 and the relative viability ([5]; first compound 8 µM) was 0.134.
SK-MES-1 was tested, and the relative viability ([1]; first compound 0.253 µM) was 0.566, the relative viability ([1]; first compound 0.8 µM) was 0.657 and the relative viability ([1]; first compound 2.53 µM) was 0.197. For the same cell line, the relative viability ([1]; first compound 8 µM) was 0.148, the relative viability ([2]; first compound 0.253 µM) was 0.362 and the relative viability ([2]; first compound 0.8 µM) was 0.364. For the same cell line, the relative viability ([2]; first compound 2.53 µM) was 0.212, the relative viability ([2]; first compound 8 µM) was 0.163 and the relative viability ([3]; first compound 0.253 µM) was 0.377. For the same cell line, the relative viability ([3]; first compound 0.8 µM) was 0.453, the relative viability ([3]; first compound 2.53 µM) was 0.418 and the relative viability ([3]; first compound 8 µM) was 0.222. For the same cell line, the relative viability ([4]; first compound 0.253 µM) was 0.86, the relative viability ([4]; first compound 0.8 µM) was 0.662 and the relative viability ([4]; first compound 2.53 µM) was 0.235. The relative viability ([4]; first compound 8 µM) was 0.136, the relative viability ([5]; first compound 0.253 µM) was 1.09 and the relative viability ([5]; first compound 0.8 µM) was 1.02. It also gave a relative viability ([5]; first compound 2.53 µM) of 0.495 and a relative viability ([5]; first compound 8 µM) of 0.21.
In the case of SW 1573, the relative viability ([1]; first compound 0.253 µM) is reported as 0.593, the relative viability ([1]; first compound 0.8 µM) is reported as 0.789 and the relative viability ([1]; first compound 2.53 µM) is reported as 0.112. It also gave a relative viability ([1]; first compound 8 µM) of 0.0513, a relative viability ([2]; first compound 0.253 µM) of 0.514 and a relative viability ([2]; first compound 0.8 µM) of 0.355. The relative viability ([2]; first compound 2.53 µM) was 0.14, the relative viability ([2]; first compound 8 µM) was 0.0457 and the relative viability ([3]; first compound 0.253 µM) was 0.433. The relative viability ([3]; first compound 0.8 µM) was 0.305, the relative viability ([3]; first compound 2.53 µM) was 0.212 and the relative viability ([3]; first compound 8 µM) was 0.0703. It also gave a relative viability ([4]; first compound 0.253 µM) of 0.19, a relative viability ([4]; first compound 0.8 µM) of 0.266 and a relative viability ([4]; first compound 2.53 µM) of 0.155. For the same cell line, the relative viability ([4]; first compound 8 µM) was 0.0644, the relative viability ([5]; first compound 0.253 µM) was 0.986 and the relative viability ([5]; first compound 0.8 µM) was 0.978. The relative viability ([5]; first compound 2.53 µM) was 0.421 and the relative viability ([5]; first compound 8 µM) was 0.13.
Cell Line NCI-H1395 has a relative viability ([1]; first compound 0.253 µM) of 0.395, a relative viability ([1]; first compound 0.8 µM) of 0.434 and a relative viability ([1]; first compound 2.53 µM) of 0.365. It also gave a relative viability ([1]; first compound 8 µM) of 0.344, a relative viability ([2]; first compound 0.253 µM) of 0.857 and a relative viability ([2]; first compound 0.8 µM) of 0.69. The relative viability ([2]; first compound 2.53 µM) was 0.565, the relative viability ([2]; first compound 8 µM) was 0.343 and the relative viability ([3]; first compound 0.253 µM) was 0.714. The relative viability ([3]; first compound 0.8 µM) was 0.688, the relative viability ([3]; first compound 2.53 µM) was 0.537 and the relative viability ([3]; first compound 8 µM) was 0.309. For the same cell line, the relative viability ([4]; first compound 0.253 µM) was 1.02, the relative viability ([4]; first compound 0.8 µM) was 0.682 and the relative viability ([4]; first compound 2.53 µM) was 0.456. The relative viability ([4]; first compound 8 µM) was 0.324, the relative viability ([5]; first compound 0.253 µM) was 1.31 and the relative viability ([5]; first compound 0.8 µM) was 1.22. For the same cell line, the relative viability ([5]; first compound 2.53 µM) was 0.725 and the relative viability ([5]; first compound 8 µM) was 0.344.
Cell Line NCI-H2347 has a relative viability ([1]; first compound 0.253 µM) of 0.283, a relative viability ([1]; first compound 0.8 µM) of 0.295 and a relative viability ([1]; first compound 2.53 µM) of 0.271. The relative viability ([1]; first compound 8 µM) was 0.189, the relative viability ([2]; first compound 0.253 µM) was 0.644 and the relative viability ([2]; first compound 0.8 µM) was 0.62. For the same cell line, the relative viability ([2]; first compound 2.53 µM) was 0.508, the relative viability ([2]; first compound 8 µM) was 0.24 and the relative viability ([3]; first compound 0.253 µM) was 0.405. The relative viability ([3]; first compound 0.8 µM) was 0.371, the relative viability ([3]; first compound 2.53 µM) was 0.362 and the relative viability ([3]; first compound 8 µM) was 0.242. It also gave a relative viability ([4]; first compound 0.253 µM) of 0.66, a relative viability ([4]; first compound 0.8 µM) of 0.432 and a relative viability ([4]; first compound 2.53 µM) of 0.244. It also gave a relative viability ([4]; first compound 8 µM) of 0.203, a relative viability ([5]; first compound 0.253 µM) of 0.992 and a relative viability ([5]; first compound 0.8 µM) of 0.982. The relative viability ([5]; first compound 2.53 µM) was 0.766 and the relative viability ([5]; first compound 8 µM) was 0.306.
In the case of NCI-H650, the relative viability ([1]; first compound 0.253 µM) is reported as 0.475, the relative viability ([1]; first compound 0.8 µM) is reported as 0.357 and the relative viability ([1]; first compound 2.53 µM) is reported as 0.196. It also gave a relative viability ([1]; first compound 8 µM) of 0.126, a relative viability ([2]; first compound 0.253 µM) of 0.332 and a relative viability ([2]; first compound 0.8 µM) of 0.312. The relative viability ([2]; first compound 2.53 µM) was 0.208, the relative viability ([2]; first compound 8 µM) was 0.104 and the relative viability ([3]; first compound 0.253 µM) was 0.338. It also gave a relative viability ([3]; first compound 0.8 µM) of 0.319, a relative viability ([3]; first compound 2.53 µM) of 0.159 and a relative viability ([3]; first compound 8 µM) of 0.118. The relative viability ([4]; first compound 0.253 µM) was 0.686, the relative viability ([4]; first compound 0.8 µM) was 0.421 and the relative viability ([4]; first compound 2.53 µM) was 0.154. The relative viability ([4]; first compound 8 µM) was 0.136, the relative viability ([5]; first compound 0.253 µM) was 1.13 and the relative viability ([5]; first compound 0.8 µM) was 0.52. The relative viability ([5]; first compound 2.53 µM) was 0.205 and the relative viability ([5]; first compound 8 µM) was 0.152.
Work on NCI-H1975 yielded a relative viability ([1]; first compound 0.253 µM) of 0.407, a relative viability ([1]; first compound 0.8 µM) of 0.32 and a relative viability ([1]; first compound 2.53 µM) of 0.162. It also gave a relative viability ([1]; first compound 8 µM) of 0.0818, a relative viability ([2]; first compound 0.253 µM) of 0.435 and a relative viability ([2]; first compound 0.8 µM) of 0.441. It also gave a relative viability ([2]; first compound 2.53 µM) of 0.165, a relative viability ([2]; first compound 8 µM) of 0.113 and a relative viability ([3]; first compound 0.253 µM) of 0.569. For the same cell line, the relative viability ([3]; first compound 0.8 µM) was 0.461, the relative viability ([3]; first compound 2.53 µM) was 0.164 and the relative viability ([3]; first compound 8 µM) was 0.104. The relative viability ([4]; first compound 0.253 µM) was 0.762, the relative viability ([4]; first compound 0.8 µM) was 0.484 and the relative viability ([4]; first compound 2.53 µM) was 0.118. For the same cell line, the relative viability ([4]; first compound 8 µM) was 0.077, the relative viability ([5]; first compound 0.253 µM) was 0.987 and the relative viability ([5]; first compound 0.8 µM) was 0.8. It also gave a relative viability ([5]; first compound 2.53 µM) of 0.294 and a relative viability ([5]; first compound 8 µM) of 0.145.
Work on NCI-H3122 yielded a relative viability ([1]; first compound 0.253 µM) of 1.11, a relative viability ([1]; first compound 0.8 µM) of 0.69 and a relative viability ([1]; first compound 2.53 µM) of 0.0421. It also gave a relative viability ([1]; first compound 8 µM) of 0.0399, a relative viability ([2]; first compound 0.253 µM) of 0.45 and a relative viability ([2]; first compound 0.8 µM) of 0.582. For the same cell line, the relative viability ([2]; first compound 2.53 µM) was 0.269, the relative viability ([2]; first compound 8 µM) was 0.117 and the relative viability ([3]; first compound 0.253 µM) was 0.19. For the same cell line, the relative viability ([3]; first compound 0.8 µM) was 0.254, the relative viability ([3]; first compound 2.53 µM) was 0.142 and the relative viability ([3]; first compound 8 µM) was 0.0743. The relative viability ([4]; first compound 0.253 µM) was 0.387, the relative viability ([4]; first compound 0.8 µM) was 0.294 and the relative viability ([4]; first compound 2.53 µM) was 0.0525. It also gave a relative viability ([4]; first compound 8 µM) of 0.0914, a relative viability ([5]; first compound 0.253 µM) of 1.12 and a relative viability ([5]; first compound 0.8 µM) of 1.05. It also gave a relative viability ([5]; first compound 2.53 µM) of 0.605 and a relative viability ([5]; first compound 8 µM) of 0.142.
